According to PMC3970910 (Biochemistry, 2013):

What was measured:
mouse osteoclast = settings: mouse osteoclasts in vitro; cited from earlier work
human osteoclast = settings: human osteoclasts in vitro; cited from earlier work
GPR18 = settings: cited from earlier work
untransfected U2OS cells = assay: ERK1/2 phosphorylation in untransfected U2OS cells; type: cell-based

For C=C(C)[C@@H]1CCC(C)=C[C@H]1c1c(O)cc(CCCCC)cc1O [CBD, cannabidiol], the “effect on osteoclast polarization and resorption produced by GPR55 agonists O-1602 and LPI” value (mouse osteoclast) is listed as “attenuating the effects”, the “effect on osteoclast polarization and resorption produced by GPR55 agonists O-1602 and LPI” value (human osteoclast) is listed as “attenuating the effects” and the “activity at GPR18” value (GPR18) is listed as “low efficacy agonist”.
For L-α-lysophosphatidylinositol [LPI], the “Induction of ERK1/2 phosphorylation in untransfected U2OS cells” value (untransfected U2OS cells) was “neither LPI nor any of the antagonist compounds induced ERK1/2 phosphorylation”.
